Ki data for five compounds are collected here from BindingDB's records for doi:10.1016/0006-8993(87)90040-0 (St, Marianna University School of Medicine, 1987).

One may read the Ki as a measure of affinity in units of concentration, obtained from inhibition or displacement.

Chain of D(2) dopamine receptor (P61169 whole entry): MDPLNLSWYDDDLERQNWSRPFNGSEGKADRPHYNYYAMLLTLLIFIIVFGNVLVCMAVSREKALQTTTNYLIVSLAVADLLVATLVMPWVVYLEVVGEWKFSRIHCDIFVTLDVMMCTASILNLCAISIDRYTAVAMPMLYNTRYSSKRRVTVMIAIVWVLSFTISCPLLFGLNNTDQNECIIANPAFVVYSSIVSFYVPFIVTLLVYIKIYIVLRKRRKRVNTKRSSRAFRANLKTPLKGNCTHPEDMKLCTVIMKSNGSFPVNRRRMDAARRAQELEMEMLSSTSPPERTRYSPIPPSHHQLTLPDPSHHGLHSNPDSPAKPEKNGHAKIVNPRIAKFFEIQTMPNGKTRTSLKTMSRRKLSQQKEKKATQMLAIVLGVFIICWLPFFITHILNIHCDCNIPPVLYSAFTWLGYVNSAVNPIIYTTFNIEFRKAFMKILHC

This test concerns the target D(2) dopamine receptor (Rattus norvegicus, UniProt P61169).
As to `COC(=O)[C@@H]1[C@H]2C[C@H]3c4[nH]c5ccccc5c4CCN3C[C@@H]2CC[C@@H]1O` [yohimbic acid methyl ester], the affinity, expressed as Ki, was 158 nM. `COc1cc2nc(N3CCN(C(=O)c4ccco4)CC3)nc(N)c2cc1OC` [[3H]-Minipress] returned an inhibition constant (Ki) of 8790 nM.

As for `COc1ccc2c(c1)N(C[C@@H](C)CN(C)C)c1ccccc1S2`, the Ki stood at 15 nM. Turning to `CCN(CC)CCNC(=O)c1cc(S(C)(=O)=O)ccc1OC` [CAS_51012-32-9], the inhibition constant Ki came to 77 nM. `CCN1CCC[C@H]1CNC(=O)c1cc(S(=O)(=O)CC)ccc1OC` [Sultopride] registered a Ki of 2.4 nM.
